Values quoted from earlier work as cited in patent US5523456A, “Inhibitors of farnesyl-protein transferase” (Merck & Co., Inc., priority 1994, dated 1996).

Test system: Ras farnesylation
Conditions: Hancock et al.; Casey et al.; Schafer et al.

Row | Structure (SMILES) | Inhibition of Ras farnesylation in vivo
1 | CC[C@H](C)C(=O)O[C@H]1C[C@@H](C)C=C2C=C[C@H](C)[C@H](CC[C@@H]3C[C@@H](O)CC(=O)O3)[C@H]21 [lovastatin] | Inhibition of Ras farnesylation in vivo has been demonstrated
2 | CC[C@H](C)C(=O)O[C@H]1CCC=C2C=C[C@H](C)[C@H](CC[C@@H]3C[C@@H](O)CC(=O)O3)[C@H]21 [compactin] | Inhibition of Ras farnesylation in vivo has been demonstrated
